Source: article PMC6934184, “Selective DNA-PKcs inhibition extends the therapeutic index of localized radiotherapy and chemotherapy” (The Journal of Clinical Investigation, 2019)

Biological target: T1, SIK3 (Homo sapiens, UniProt Q9Y2K2)
T1 construct: purchased Thermo Fisher Scientific (Life Technologies) SelectScreen
Test: SelectScreen LanthaScreen
Format: binding
Details: 1 µM
Method in brief: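 Percent values come from Thermo SelectScreen profiling of NU5455, combining activity and binding assays. CSF1R was run in Z'LYTE format at Km app ATP, and CAMK1 in Adapta format with ATP listed at 10.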

T1 sequence (Q9Y2K2 whole entry): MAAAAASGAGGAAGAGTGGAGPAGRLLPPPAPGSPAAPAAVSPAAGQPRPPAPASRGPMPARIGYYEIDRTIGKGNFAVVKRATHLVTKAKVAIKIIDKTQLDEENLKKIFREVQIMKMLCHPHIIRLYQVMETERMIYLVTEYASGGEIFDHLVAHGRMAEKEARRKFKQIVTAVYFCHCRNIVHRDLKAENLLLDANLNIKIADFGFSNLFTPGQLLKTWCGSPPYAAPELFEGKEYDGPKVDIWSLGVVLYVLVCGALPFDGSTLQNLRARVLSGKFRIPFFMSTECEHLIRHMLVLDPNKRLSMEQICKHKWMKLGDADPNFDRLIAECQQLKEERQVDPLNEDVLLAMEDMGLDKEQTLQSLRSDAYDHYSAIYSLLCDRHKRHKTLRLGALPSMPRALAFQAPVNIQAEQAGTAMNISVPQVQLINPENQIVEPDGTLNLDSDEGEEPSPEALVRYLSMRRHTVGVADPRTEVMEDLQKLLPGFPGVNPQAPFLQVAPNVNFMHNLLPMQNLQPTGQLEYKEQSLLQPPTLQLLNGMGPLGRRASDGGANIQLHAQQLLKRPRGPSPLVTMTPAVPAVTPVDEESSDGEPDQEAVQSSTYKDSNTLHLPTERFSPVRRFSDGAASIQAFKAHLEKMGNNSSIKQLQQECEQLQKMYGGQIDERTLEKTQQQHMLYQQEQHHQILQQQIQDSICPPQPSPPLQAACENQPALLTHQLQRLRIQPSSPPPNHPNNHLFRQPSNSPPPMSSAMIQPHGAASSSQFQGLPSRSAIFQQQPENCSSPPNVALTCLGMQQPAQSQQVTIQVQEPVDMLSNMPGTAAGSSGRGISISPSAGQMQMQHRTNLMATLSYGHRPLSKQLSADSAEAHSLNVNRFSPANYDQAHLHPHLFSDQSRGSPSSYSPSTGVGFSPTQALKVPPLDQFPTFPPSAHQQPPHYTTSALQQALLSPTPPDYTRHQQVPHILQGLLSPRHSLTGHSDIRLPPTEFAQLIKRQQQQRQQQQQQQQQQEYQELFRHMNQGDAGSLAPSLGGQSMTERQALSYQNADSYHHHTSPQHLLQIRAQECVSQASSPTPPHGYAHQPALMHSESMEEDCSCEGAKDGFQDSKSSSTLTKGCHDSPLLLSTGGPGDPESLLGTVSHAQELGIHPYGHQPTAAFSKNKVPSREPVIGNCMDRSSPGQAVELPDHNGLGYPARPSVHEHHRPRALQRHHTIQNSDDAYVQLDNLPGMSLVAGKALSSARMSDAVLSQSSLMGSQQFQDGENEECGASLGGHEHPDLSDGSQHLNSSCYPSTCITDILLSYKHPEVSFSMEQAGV

Structure (SMILES): CN(C(=O)CN1CCOCC1)c1ccc2sc3c(-c4cccc5c(=O)cc(N6CC7CCC(C6)O7)oc45)cccc3c2c1 [NU5455]
- % displacement: 16.1%
